Blank lines part the entries; values can stand above or below the molecule they belong to.
B3: human glycogen synthase GYS1 (aa 1–737), untagged, as in the GYS1–GYG1^ΔCD complex (enzyme, UniProt P13807 1-737, looked up)
chain: MPLNRTLSMSSLPGLEDWEDEFDLENAVLFEVAWEVANKVGGIYTVLQTKAKVTGDEWGDNYFLVGPYTEQGVRTQVELLEAPTPALKRTLDSMNSKGCKVYFGRWLIEGGPLVVLLDVGASAWALERWKGELWDTCNIGVPWYDREANDAVLFGFLTTWFLGEFLAQSEEKPHVVAHFHEWLAGVGLCLCRARRLPVATIFTTHATLLGRYLCAGAVDFYNNLENFNVDKEAGERQIYHRYCMERAAAHCAHVFTTVSQITAIEAQHLLKRKPDIVTPNGLNVKKFSAMHEFQNLHAQSKARIQEFVRGHFYGHLDFNLDKTLYFFIAGRYEFSNKGADVFLEALARLNYLLRVNGSEQTVVAFFIMPARTNNFNVETLKGQAVRKQLWDTANTVKEKFGRKLYESLLVGSLPDMNKMLDKEDFTMMKRAIFATQRQSFPPVCTHNMLDDSSDPILTTIRRIGLFNSSADRVKVIFHPEFLSSTSPLLPVDYEEFVRGCHLGVFPSYYEPWGYTPAECTVMGIPSISTNLSGFGCFMEEHIADPSAYGIYILDRRFRSLDDSCSQLTSFLYSFCQQSRRQRIIQRNRTERLSDLLDWKYLGRYYMSARHMALSKAFPEHFTYEPNEADAAQGYRYPRPASVPPSPSLSRHSSPHQSEDEEDPRNGPLEEDGERYDEDEEAAKDRRNIRAPEWPRRASCTSSTSGSKRNSVDTATSSSLSTPSEPLSPTSSLGEERN
modifications: multiply phosphorylated (intact mass spectrometry); phosphorylated Ser641 (site 3a) modelled in the inhibited state
notes: human glycogen synthase GYS1 (muscle isoform), amino acids 1–737, codon-optimized synthetic gene; Homotetramer (dimer of dimers) in the cryo-EM structures; source: Sf9 cells, coexpressed with His6-GST-GYG1 294–350 from a bicistronic construct, purified (Ni-Sepharose, Superose 6)

Experiments:
[1] = target: T1, Glycogen synthase (GYS1) (Homo sapiens, UniProt P13807); test: cryo-EM structure at […] Å with Glc6P and UDP-glc added (UDP-glc hydrolysed); format: binding
T1 construct: full-length GYS1 (aa 1–737) coexpressed with GYG1 aa 294–350 (GYS1–GYG1^ΔCD); with GYG1 (aa 294–350)
T1 sequence (P13807 1-737): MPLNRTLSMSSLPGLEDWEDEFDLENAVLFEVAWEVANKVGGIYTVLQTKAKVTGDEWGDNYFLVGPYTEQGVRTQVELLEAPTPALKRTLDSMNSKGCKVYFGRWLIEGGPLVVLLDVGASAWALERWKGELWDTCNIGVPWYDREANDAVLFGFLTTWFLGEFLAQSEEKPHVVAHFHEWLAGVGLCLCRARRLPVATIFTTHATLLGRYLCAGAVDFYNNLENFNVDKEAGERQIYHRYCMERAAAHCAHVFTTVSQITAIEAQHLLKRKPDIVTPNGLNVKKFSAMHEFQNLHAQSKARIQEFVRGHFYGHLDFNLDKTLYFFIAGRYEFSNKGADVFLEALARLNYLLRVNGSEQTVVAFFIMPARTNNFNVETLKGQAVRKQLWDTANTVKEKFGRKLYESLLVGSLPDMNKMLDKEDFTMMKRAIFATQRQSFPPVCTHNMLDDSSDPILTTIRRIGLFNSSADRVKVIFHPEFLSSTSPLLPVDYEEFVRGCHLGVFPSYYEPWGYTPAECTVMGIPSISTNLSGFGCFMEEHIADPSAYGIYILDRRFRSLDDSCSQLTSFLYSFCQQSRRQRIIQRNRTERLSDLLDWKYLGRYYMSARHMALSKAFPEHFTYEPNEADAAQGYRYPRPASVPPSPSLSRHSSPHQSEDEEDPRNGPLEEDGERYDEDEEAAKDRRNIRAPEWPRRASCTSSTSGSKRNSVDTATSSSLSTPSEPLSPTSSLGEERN
T1 sequence (P46976 294-350 partner): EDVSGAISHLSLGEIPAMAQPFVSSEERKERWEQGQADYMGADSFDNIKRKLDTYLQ

[2] = target: T1, Glycogen synthase (GYS1); test: cryo-EM structures (7Q13 […] Å; also 7Q12, 7Q0S); thermal shift titration, AC50 of PP1c-dephosphorylated GYS1–GYG1^ΔCD; format: binding
[3] = target: T2, PTG (PPP1R3C) (Homo sapiens, UniProt Q9UQK1); test: thermal shift assay titration (AC50); format: binding
T2 construct: CBM21 domain, aa 134–259
T2 sequence (Q9UQK1 134-259): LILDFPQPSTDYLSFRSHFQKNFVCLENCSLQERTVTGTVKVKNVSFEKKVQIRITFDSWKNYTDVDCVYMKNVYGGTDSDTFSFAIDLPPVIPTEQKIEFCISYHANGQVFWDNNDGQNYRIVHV

[4] = target: T2, PTG (PPP1R3C); test: thermal shift assay (no Kd); format: binding
[5] = target: T3, GYS1–GYG1^FL complex (full-length human GYS1 with full-length glucosylated GYG1) (human, UniProt P13807 1-737; P46976-1 1-350, heterogeneous phosphorylation | glucosylated (GYG1 is attached with a glucose chain), heterogeneous); test: pull-down; His-PPP1R3C (1.0 mg ml^-1) preincubated with GYS1–GYG1 complex (0.25 mg ml^-1) or GYG1 (0.5 mg ml^-1) for 30 min at 4 °C, captured on Talon resin in 25 mM HEPES pH 7.5, 100 mM NaCl, 1 mM TCEP, 0.2% Tween-20; wash with 10 mM imidazole; SDS-PAGE, Coomassie; details: both partners purified
T3 construct: human glycogen synthase GYS1, full length; human glycogenin-1 (GYG1), isoform GN-1L, UniProt P46976-1, full length; source: Sf9 cells, coexpressed, purified (Ni-Sepharose, Superose 6, TEV treatment); not shown: His6, N-terminal, cleaved
T3 sequence (looked up) 1: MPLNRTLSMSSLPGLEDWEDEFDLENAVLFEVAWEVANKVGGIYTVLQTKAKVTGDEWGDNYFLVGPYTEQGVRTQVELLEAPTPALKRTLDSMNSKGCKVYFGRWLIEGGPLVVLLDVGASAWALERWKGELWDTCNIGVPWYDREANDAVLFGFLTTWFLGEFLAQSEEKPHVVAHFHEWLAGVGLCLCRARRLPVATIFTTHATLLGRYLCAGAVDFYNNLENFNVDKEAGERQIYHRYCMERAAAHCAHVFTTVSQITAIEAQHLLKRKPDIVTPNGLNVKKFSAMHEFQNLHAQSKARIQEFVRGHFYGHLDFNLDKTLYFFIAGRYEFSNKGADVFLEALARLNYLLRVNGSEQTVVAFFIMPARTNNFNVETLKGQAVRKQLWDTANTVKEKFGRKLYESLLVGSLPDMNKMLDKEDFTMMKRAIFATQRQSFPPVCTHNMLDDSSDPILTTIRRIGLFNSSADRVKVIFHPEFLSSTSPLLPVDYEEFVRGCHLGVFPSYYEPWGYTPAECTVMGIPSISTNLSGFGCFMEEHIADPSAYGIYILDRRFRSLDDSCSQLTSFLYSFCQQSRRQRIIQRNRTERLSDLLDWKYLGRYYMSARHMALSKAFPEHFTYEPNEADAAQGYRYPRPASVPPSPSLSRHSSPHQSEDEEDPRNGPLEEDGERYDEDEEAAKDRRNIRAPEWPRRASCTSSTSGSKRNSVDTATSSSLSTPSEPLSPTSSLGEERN
T3 sequence (looked up) 2: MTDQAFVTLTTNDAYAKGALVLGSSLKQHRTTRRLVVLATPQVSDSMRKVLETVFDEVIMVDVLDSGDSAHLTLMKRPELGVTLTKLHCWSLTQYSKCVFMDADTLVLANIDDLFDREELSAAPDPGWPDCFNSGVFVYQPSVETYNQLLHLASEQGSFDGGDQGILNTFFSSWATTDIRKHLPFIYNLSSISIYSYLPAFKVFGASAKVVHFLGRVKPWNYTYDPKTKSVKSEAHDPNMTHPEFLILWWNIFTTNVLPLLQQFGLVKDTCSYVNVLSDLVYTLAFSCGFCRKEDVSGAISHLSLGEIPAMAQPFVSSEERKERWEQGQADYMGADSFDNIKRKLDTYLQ

[6] = target: B3; test: cryo-EM structure; GYS1–GYG1^ΔCD at 0.75 or 0.5 mg ml^-1 in 25 mM HEPES pH 7.5, 200 mM NaCl, 2.0 mM TCEP, 0.05% Tween-20; as purified (inhibited state), with 5 mM Glc6P (inhibited-like and activated states), with 5 mM Glc6P and 5 mM UDP-Glc (activated state); D2 symmetry; details: both partners purified
[7] = target: the molecule itself; test: as above

Molecule: OC[C@H]1OC(O)[C@H](O)[C@@H](O)[C@@H]1O (stereo partly shown) [GLC, glucose]
- cryo-EM structure at 3.0 Å with Glc6P and UDP-glc added (UDP-glc hydrolysed) [1]: The hydrolysed glucose molecule formed multiple hydrogen bonds with the side chains of Arg211, Arg311, Glu510 and Tyr514

Molecule: OC[C@H]1O[C@H](O[C@H]2[C@H](O)[C@@H](O)[C@@H](O[C@H]3[C@H](O)[C@@H](O)[C@@H](O[C@H]4[C@H](O)[C@@H](O)C(O)O[C@@H]4CO)O[C@@H]3CO)O[C@@H]2CO)[C@H](O)[C@@H](O)[C@@H]1O (stereo partly shown) [maltotetraose]
- thermal shift assay (no Kd) [4]: Glycogen, debranched glycogen, maltotetraose and maltoheptaose increased the thermostability of PTG(CBM21)

Molecule: B3
- stoichiometry N [7]: 4

The next lines start with the values.

- AC50 [2]: 1.5 ± 0.2 mM
Molecule: O=P(O)(O)OC[C@H]1OC(O)[C@H](O)[C@@H](O)[C@@H]1O (stereo partly shown) [Glc6P, glucose-6-phosphate]

- AC50 [3]: 2.4 ± 0.6 mM
Molecule: OC[C@H]1O[C@H](O[C@H]2[C@H](O)[C@@H](O)[C@@H](O[C@H]3[C@H](O)[C@@H](O)[C@@H](O[C@H]4[C@H](O)[C@@H](O)[C@@H](O[C@H]5[C@H](O)[C@@H](O)[C@@H](O[C@H]6[C@H](O)[C@@H](O)[C@@H](O[C@H]7[C@H](O)[C@@H](O)C(O)O[C@@H]7CO)O[C@@H]6CO)O[C@@H]5CO)O[C@@H]4CO)O[C@@H]3CO)O[C@@H]2CO)[C@H](O)[C@@H](O)[C@@H]1O (stereo partly shown) [maltoheptaose]

- binding result [5]: binds
B1: human PTG (PPP1R3C) aa 134–259, CBM21 domain construct, His-tagged (domain or fragment, UniProt Q9UQK1 134-259, looked up)
chain: LILDFPQPSTDYLSFRSHFQKNFVCLENCSLQERTVTGTVKVKNVSFEKKVQIRITFDSWKNYTDVDCVYMKNVYGGTDSDTFSFAIDLPPVIPTEQKIEFCISYHANGQVFWDNNDGQNYRIVHV
notes: The His6-tag is TEV-cleavable but was kept: the protein was captured on Talon resin by it; also called PTG(CBM21); His-PPP1R3C; source: cultured in autoinduction Terrific Broth, purified (Ni-Sepharose, Superdex 75); not shown: His6, N-terminal, kept

- stoichiometry N [6]: 1
B2: human GYG1 C terminus, aa 294–350 (GYG1^ΔCD) (domain or fragment, UniProt P46976-1 294-350, looked up)
chain: EDVSGAISHLSLGEIPAMAQPFVSSEERKERWEQGQADYMGADSFDNIKRKLDTYLQ
notes: human glycogenin-1 (GYG1), isoform GN-1L, UniProt P46976-1, amino acids 294–350, codon-optimized synthetic gene; Residues 317–349 were modelled in the cryo-EM map; The methods name MBP-His6, His6-GST and His6-GFP tags as tried; the results name His6-GST for the bicistronic constructs; also called GYG1 294–350; not shown: His6-GST, N-terminal, cleaved
